Values quoted from earlier work in article PMC12308805, “Ultrahigh-Throughput Virtual Screening Strategies against PPI Targets: A Case Study of STAT Inhibitors” (Journal of Chemical Information and Modeling, 2025).
Square brackets hold non-standard residues; d marks the D form. Peptide text beside a SMILES is read from it. pY = N[C@@H](Cc1ccc(OP(=O)(O)O)cc1)C(=O)O

test system: STAT3; details: cited from earlier work

| Structure (SMILES) | Type (known STAT3 active) |
| --- | --- |
| CC(=O)N[C@@H](Cc1ccc(OP(=O)(O)O)cc1)C(=O)N[C@@H](CC(C)C)C(=O)N1CCC[C@H]1C(=O)N[C@@H](CCC(N)=O)C(=O)N[C@H](C(N)=O)[C@@H](C)O [CHEMBL382978] (Ac-[pY]LPQT-NH2) | Active |

same assay, conditions: sheet 6QHD_actives_decoys, retrospective screening set for STAT3 SH2 domain (PDB 6QHD); decoys are presumed inactives, not tested; ref DUD-E; cited from earlier work

| Structure (SMILES) | Type |
| --- | --- |
| C/C=C(/C[C@H](O)N(C=O)Cc1cnc(C)nc1N)SS/C(=C/C)C[C@@H](O)N(C=O)Cc1cnc(C)nc1N [Decoy935] | Inactive (Decoy) |
| O[C@@H](CNCCOc1ccccc1OCCNC[C@H](O)COc1cccc2[nH]c3ccccc3c12)COc1cccc2[nH]c3ccccc3c12 [Decoy878] | Inactive (Decoy) |
| CO[C@H]1C[C@H](O[C@H]2CC[C@]3(C=O)[C@H]4CC[C@]5(C)[C@@H](C6=CC(=O)OC6)CC[C@]5(O)[C@@H]4CC[C@]3(O)C2)O[C@H](C)[C@H]1O[C@H]1O[C@H](CO)[C@@H](O)[C@H](O)[C@H]1O [Decoy943] | Inactive (Decoy) |
| COc1c(O)ccc(/C=N/NC(=O)/C(=C\c2ccc(N(C)C)cc2)NC(=O)c2ccccc2)c1[N+](=O)[O-] [Decoy941] | Inactive (Decoy) |
| O=c1ccn([C@@H]2O[C@H](CO[P@](=O)(O)O[P@@](=O)(O)O[C@H]3OC[C@@H](O)[C@H](O)[C@H]3O)[C@@H](O)[C@H]2O)c(=O)[nH]1 [Decoy865] | Inactive (Decoy) |
| CCNc1nc(NCC)n2c(SCC(=O)NC3=C(C(=O)OCC)[C@H]4CCC[C@@H]4S3)nnc2n1 [Decoy857] | Inactive (Decoy) |

same assay, conditions: sheet 6QHD_actives_decoys; retrospective screening set for STAT3 SH2 domain (PDB 6QHD); […]; ref DUD-E; cited from earlier work

| Structure (SMILES) | Type |
| --- | --- |
| Cc1cc(C(=O)Nc2ccc(S(=O)(=O)Nc3ncccn3)cc2)cc(S(=O)(=O)N(C)C)c1C [Decoy675] | Inactive (Decoy) |

same assay, conditions: sheet 6QHD_actives_decoys; retrospective screening set for STAT3 SH2 domain (PDB 6QHD); decoys generated with DUD-E and presumed inactive, not tested; ref DUD-E; cited from earlier work

| Structure (SMILES) | Type |
| --- | --- |
| Cc1cc(C)n(CCCNC(=O)c2cc(=O)[nH]c3ccc(S(=O)(=O)N4CCOCC4)cc23)n1 [Decoy597] | Inactive (Decoy) |
| COC(=O)c1ccc(NC(=O)CSc2nc(N)c(NC(=O)c3ccc(Br)o3)c(=O)[nH]2)cc1 [Decoy351] | Inactive (Decoy) |
| COC(=O)[C@@H]1O[C@H](OC/C(=N/NC(N)=O)[C@@]2(O)CC[C@@H]3[C@@H]4CC[C@@H]5C[C@H](OC(C)=O)CC[C@@]5(C)[C@H]4C(=O)C[C@]32C)[C@@H](OC(C)=O)[C@H](OC(C)=O)[C@H]1OC(C)=O [Decoy338] | Inactive (Decoy) |
| CC[C@@H](C)[C@@H](NC(=O)CNC(=O)CCc1c(C)c2cc3c(C)coc3c(C)c2oc1=O)C(=O)O [Decoy649] | Inactive (Decoy) |
| CC(C)(C)c1cc(Br)cc([C@@H](CN(C(=O)CN)C(=O)c2cc(O)cc(N=C3NCC(O)CN3)c2)C(=O)O)c1 (stereo partly shown) [Decoy598] | Inactive (Decoy) |
| CNC(=O)Cn1c(=O)[nH]c(NC)c(C(c2ccc(Cl)cc2)c2c(NC)[nH]c(=O)n(CC(=O)NC)c2=O)c1=O [Decoy363] | Inactive (Decoy) |
| CCCCOc1ccc([C@H]2C(C(=O)c3nc4c(C)cccn4c3C)=C(O)C(=O)N2CCOC)cc1OC [Decoy346] | Inactive (Decoy) |
| Nc1ccc(/N=N\c2ccc3cc(S(=O)(=O)O)c(/N=N/c4ccc(/N=N/c5ccc(N)cc5N)c(S(=O)(=O)O)c4)c(O)c3c2)c(N)c1 [Decoy383] | Inactive (Decoy) |
| Nc1cnn([C@@H]2O[C@@H](COC(=O)c3ccccc3)[C@H](OC(=O)c3ccccc3)[C@@H]2OC(=O)c2ccccc2)c(=O)n1 [Decoy672] | Inactive (Decoy) |
| CCCCn1nc(NC(=O)c2cc(OCC)c(OCC)c(OCC)c2)c2cc3cc(C)ccc3nc21 [Decoy415] | Inactive (Decoy) |
| CCOC(=O)CNS(=O)(=O)c1cc(-c2nnc(Nc3ccc(OCC(=O)NC)cc3)c3ccccc23)ccc1C [Decoy401] | Inactive (Decoy) |
| C[N+]1=C(/C=C/C=C2/N(CCCCC(=O)NCCOCCOCCNCCO[C@H]3O[C@@H](CO)[C@@H](O)[C@H](O)[C@H]3O)c3ccccc3C2(C)C)C(C)(C)c2ccccc21 [Decoy589] | Inactive (Decoy) |
| CCN(CC)C(=O)c1sc(NC(=O)CCSCCC(=O)Nc2sc(C(=O)N(CC)CC)c(C)c2C(=O)OC)c(C(=O)OC)c1C [Decoy632] | Inactive (Decoy) |
| COc1ccc(CCC(=O)O)c([C@H](CC(=O)O)C(=O)O)c1OS(=O)(=O)c1ccc(C)cc1 [Decoy549] | Inactive (Decoy) |
